# Reference: the supplement of paper PMC10307832
# Compound: NCC(=O)Nc1ccc(-n2nc(C(F)(F)F)cc2-c2ccc3c(ccc4ccccc43)c2)cc1 + Cc1nc(Nc2ncc(C(=O)Nc3c(C)cccc3Cl)s2)cc(N2CCN(CCO)CC2)n1 [Dasatinib] (partner 0.075 µM)
# Assay: relative viability (nuclei count vs DMSO), 5 days (fraction); higher = more cells survive
# Conditions: first compound 0.2 µM
# In short: (§1)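 Dosing by pin tool came one day after lung cancer cell lines were seeded in 1536-well plates, using either one drug or a fixed anchor-drug dose plus five library-drug doses (not always all listed) in √10 steps. After 5 days, nuclei were counted on 4× images. Relative viability is treated-well nuclei count divided by vehicle-well nuclei count, and values are medians of duplicate plates.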
row,Cell Line,relative viability
1,NCI-H2087,0.928
2,SK-MES-1,0.365
3,H3255,0.348
4,COR-L23,0.566
5,COR-L 105,0.362
6,LOU-NH91,0.536
7,ChaGo-K-1,0.47
8,NCI-H2170,0.494
9,NCI-H2405,0.185
10,HOP-62,0.699
11,NCI-H522,0.874
12,LU99A,0.538
13,BEN,0.244
14,HARA,0.233
15,SW 900,0.852
16,HCC-78,0.357
17,NCI-H322M,0.251
18,LCLC-97TM1,0.797
19,NCI-H2009,0.327
20,A-427,0.724

row,Cell Line,relative viability
1,NCI-H441,0.729
2,NCI-H661,0.884
3,NCI-H1734,0.513
4,NCI-H460,0.543
5,NCI-H2347,0.301
6,SK-LU-1,0.181
7,NCI-H1395,0.358
8,201T,0.56
9,NCI-H1915,0.341
10,HCC-827,0.336
11,LXF-289,0.315
12,NCI-H23,0.825
13,NCI-H647,0.227
14,CAL-12T,0.454
15,NCI-H1651,0.346
16,EPLC-272H,0.351
17,NCI-H2228,0.523
18,NCI-H1355,0.723
19,NCI-H3122,0.824

# Same assay, conditions: first compound 0.6325 µM
row,Cell Line,relative viability
1,LK-2,0.266
2,NCI-H2087,0.762
3,SK-MES-1,0.355
4,H3255,0.337
5,COR-L23,0.481
6,COR-L 105,0.418
7,LOU-NH91,0.558
8,ChaGo-K-1,0.646
9,NCI-H2170,0.581
10,NCI-H2405,0.201
11,HOP-62,0.652
12,NCI-H522,0.854
13,LU99A,0.598
14,BEN,0.333
15,HARA,0.256
16,SW 900,0.515
17,HCC-78,0.425
18,NCI-H322M,0.271
19,LCLC-97TM1,0.827
20,NCI-H2009,0.279

row,Cell Line,relative viability
1,A-427,0.682
2,NCI-H441,0.548
3,NCI-H661,0.943
4,NCI-H1734,0.466
5,NCI-H460,0.494
6,NCI-H2347,0.326
7,SK-LU-1,0.175
8,NCI-H1395,0.444
9,201T,0.53
10,NCI-H1915,0.318
11,HCC-827,0.329
12,LXF-289,0.218
13,NCI-H23,0.73
14,NCI-H647,0.193
15,CAL-12T,0.425
16,NCI-H1651,0.494
17,EPLC-272H,0.357
18,NCI-H2228,0.472
19,NCI-H1355,0.754
20,NCI-H3122,0.912

# Same assay, conditions: first compound 2 µM
row,Cell Line,relative viability
1,LK-2,0.263
2,NCI-H2087,0.904
3,SK-MES-1,0.406
4,H3255,0.347
5,COR-L23,0.531
6,COR-L 105,0.413
7,LOU-NH91,0.541
8,ChaGo-K-1,0.579
9,NCI-H2170,0.694
10,NCI-H2405,0.221
11,HOP-62,0.679
12,NCI-H522,0.921
13,LU99A,0.347
14,BEN,0.304
15,HARA,0.296
16,SW 900,0.592
17,HCC-78,0.429
18,NCI-H322M,0.261
19,LCLC-97TM1,0.752
20,NCI-H2009,0.305

row,Cell Line,relative viability
1,A-427,0.672
2,NCI-H441,0.681
3,NCI-H661,0.925
4,NCI-H1734,0.438
5,NCI-H460,0.547
6,NCI-H2347,0.298
7,SK-LU-1,0.181
8,NCI-H1395,0.39
9,201T,0.542
10,NCI-H1915,0.363
11,HCC-827,0.35
12,LXF-289,0.241
13,NCI-H23,0.832
14,NCI-H647,0.208
15,CAL-12T,0.495
16,NCI-H1651,0.462
17,EPLC-272H,0.671
18,NCI-H2228,0.533
19,NCI-H1355,0.756
20,NCI-H3122,0.799

# Compound: NCC(=O)Nc1ccc(-n2nc(C(F)(F)F)cc2-c2ccc3c(ccc4ccccc43)c2)cc1 + O=C(CCCCCCC(=O)Nc1ccccc1)NO [Vorinostat] (partner 1 µM)
# Assay: as above
# Conditions: first compound 0.02 µM
# In short: as §1
row,Cell Line,relative viability
1,LK-2,0.445
2,NCI-H2087,0.752
3,SK-MES-1,1.06
4,H3255,0.766
5,COR-L23,0.466
6,COR-L 105,0.873
7,LOU-NH91,0.895
8,ChaGo-K-1,0.667
9,NCI-H2170,0.9
10,NCI-H2405,1.08
11,HOP-62,0.536
12,NCI-H522,0.91
13,LU99A,0.415
14,BEN,0.579
15,HARA,0.552
16,SW 900,0.492
17,HCC-78,0.398
18,NCI-H322M,0.993
19,LCLC-97TM1,0.596
20,NCI-H2009,0.698

row,Cell Line,relative viability
1,A-427,0.864
2,NCI-H441,1.02
3,NCI-H661,0.811
4,NCI-H1734,0.773
5,NCI-H460,0.707
6,NCI-H2347,0.604
7,SK-LU-1,0.804
8,NCI-H1395,0.761
9,201T,0.926
10,NCI-H1915,0.525
11,HCC-827,0.906
12,LXF-289,0.737
13,NCI-H23,0.583
14,NCI-H647,0.409
15,CAL-12T,0.692
16,NCI-H1651,0.593
17,EPLC-272H,0.354
18,NCI-H2228,0.727
19,NCI-H1355,0.636
20,NCI-H3122,1.03

# Same assay, conditions: first compound 0.06325 µM
row,Cell Line,relative viability
1,LK-2,0.279
2,NCI-H2087,0.618
3,SK-MES-1,1.07
4,H3255,0.84
5,COR-L23,0.46
6,COR-L 105,0.861
7,LOU-NH91,0.977
8,ChaGo-K-1,0.794
9,NCI-H2170,0.926
10,NCI-H2405,1.11
11,HOP-62,0.534
12,NCI-H522,0.836
13,LU99A,0.588
14,BEN,0.526
15,HARA,0.518
16,SW 900,0.464
17,HCC-78,0.481
18,NCI-H322M,0.957
19,LCLC-97TM1,0.713
20,NCI-H2009,0.741

row,Cell Line,relative viability
1,A-427,0.825
2,NCI-H441,0.705
3,NCI-H661,0.817
4,NCI-H1734,0.848
5,NCI-H460,0.662
6,NCI-H2347,0.688
7,SK-LU-1,0.798
8,NCI-H1395,0.82
9,201T,0.968
10,NCI-H1915,0.555
11,HCC-827,0.335
12,LXF-289,0.91
13,NCI-H23,0.626
14,NCI-H647,0.539
15,CAL-12T,0.822
16,NCI-H1651,0.442
17,EPLC-272H,0.538
18,NCI-H2228,0.599
19,NCI-H1355,0.709
20,NCI-H3122,0.997

# Same assay, conditions: first compound 0.2 µM
row,Cell Line,relative viability
1,LK-2,0.244
2,NCI-H2087,0.809
3,SK-MES-1,1.17
4,H3255,0.872
5,COR-L23,0.576
6,COR-L 105,0.724
7,LOU-NH91,0.917
8,ChaGo-K-1,0.725
9,NCI-H2170,0.849
10,NCI-H2405,1.1
11,HOP-62,0.668
12,NCI-H522,0.802
13,LU99A,0.519
14,BEN,0.56
15,HARA,0.596
16,SW 900,0.44
17,HCC-78,0.472
18,NCI-H322M,0.836
19,LCLC-97TM1,0.699
20,NCI-H2009,0.792

row,Cell Line,relative viability
1,A-427,0.908
2,NCI-H441,0.987
3,NCI-H661,0.774
4,NCI-H1734,0.827
5,NCI-H460,0.687
6,NCI-H2347,0.685
7,SK-LU-1,0.91
8,NCI-H1395,0.686
9,201T,0.957
10,NCI-H1915,0.56
11,HCC-827,0.876
12,LXF-289,0.777
13,NCI-H23,0.644
14,NCI-H647,0.578
15,CAL-12T,1.04
16,NCI-H1651,0.543
17,EPLC-272H,0.491
18,NCI-H2228,0.685
19,NCI-H1355,0.676
20,NCI-H3122,0.995

# Same assay, conditions: first compound 0.6325 µM
row,Cell Line,relative viability
1,LK-2,0.288
2,NCI-H2087,0.649
3,SK-MES-1,1.02
4,H3255,0.809
5,COR-L23,0.449
6,COR-L 105,0.781
7,LOU-NH91,0.872
8,ChaGo-K-1,0.725
9,NCI-H2170,0.826
10,NCI-H2405,1.01
11,HOP-62,0.501
12,NCI-H522,0.973
13,LU99A,0.56
14,BEN,0.593
15,HARA,0.578
16,SW 900,0.546
17,HCC-78,0.466
18,NCI-H322M,0.927
19,LCLC-97TM1,0.69
20,NCI-H2009,0.805

row,Cell Line,relative viability
1,A-427,0.839
2,NCI-H441,0.72
3,NCI-H661,0.821
4,NCI-H1734,0.773
5,NCI-H460,0.737
6,NCI-H2347,0.611
7,SK-LU-1,0.71
8,NCI-H1395,0.646
9,201T,0.974
10,NCI-H1915,0.497
11,HCC-827,0.9
12,LXF-289,0.731
13,NCI-H23,0.573
14,NCI-H647,0.411
15,CAL-12T,0.684
16,NCI-H1651,0.612
17,EPLC-272H,0.573
18,NCI-H2228,0.723
19,NCI-H1355,0.655
20,NCI-H3122,0.942

# Same assay, conditions: first compound 2 µM
row,Cell Line,relative viability
1,LK-2,0.256
2,NCI-H2087,0.668
3,SK-MES-1,1.23
4,H3255,0.722
5,COR-L23,0.372
6,COR-L 105,1.04
7,LOU-NH91,1.01
8,ChaGo-K-1,0.76
9,NCI-H2170,0.823
10,NCI-H2405,1.16
11,HOP-62,0.7
12,NCI-H522,0.903
13,LU99A,0.535
14,BEN,0.586
15,HARA,0.551
16,SW 900,0.53
17,HCC-78,0.454
18,NCI-H322M,0.984
19,LCLC-97TM1,0.637
20,NCI-H2009,0.766

row,Cell Line,relative viability
1,A-427,0.982
2,NCI-H441,0.866
3,NCI-H661,0.784
4,NCI-H1734,0.817
5,NCI-H460,0.661
6,NCI-H2347,0.673
7,SK-LU-1,0.821
8,NCI-H1395,0.924
9,201T,0.935
10,NCI-H1915,0.552
11,HCC-827,0.834
12,LXF-289,0.787
13,NCI-H23,0.555
14,NCI-H647,0.486
15,CAL-12T,0.916
16,NCI-H1651,0.554
17,EPLC-272H,0.501
18,NCI-H2228,0.663
19,NCI-H1355,0.653
20,NCI-H3122,0.797
